Reference: article PMC4860947 (Nature, 2016)

Experiments:
[1] = test system: C. glabrata PDR1 wild-type or PDR1^L280F strains; set-up: species or system Candida glabrata; settings: in vivo
[2] = test system: C. glabrata; assay: Mouse disseminated fungal burden model; type: in vivo, Candida glabrata; settings: mice, CgPDR1 wild-type strain; 25 mg/kg fluconazole (low FLU) alone
[3] = test system: C. glabrata; type: in vivo, Candida glabrata; settings: mice; fluconazole 100 mg/kg/day, 7 days
[4] = test system: C. glabrata strains with wild-type or gain-of-function CgPDR1; type: cell-based, Candida glabrata; settings: azole alone
[5] = test system: C. glabrata adherence to CHO-Lec2 cells; assay: Yeast adherence to CHO-Lec2 epithelial cells; type: cell-based, Candida glabrata; settings: ketoconazole 40 µM alone, last 15 minutes

Row | SMILES | survival of G. mellonella larvae [1] | survival of G. mellonella larvae compared to vehicle [1] | tissue fungal burden [2] | fungal burden in the bladder and kidney [3] | sensitivity of CgPDR1 wild-type strain to azole on plates [4] | relative adherence of PDR1^L280F mutant to epithelial (CHO-Lec2) cells [5]
1 | OC(Cn1cncn1)(Cn1cncn1)c1ccc(F)cc1F [fluconazole] | sensitive to fluconazole alone | did not significantly increase survival | poorly reduced tissue burden | significantly reduces fungal burden |  | 
2 | CC(=O)N1CCN(c2ccc(OCC3COC(Cn4ccnc4)(c4ccc(Cl)cc4Cl)O3)cc2)CC1 (stereo not drawn) [ketoconazole] |  |  |  |  | sensitive | reduced relative adherence to levels comparable to a PDR1 wild-type strain
